# How the values were obtained:
# Bel-7402 = experiment: Cytotoxicity against human Bel7402 cells by MTT assay; format: functional, cell-based
# PC-3 = experiment: Cytotoxicity against human PC3 cells by MTT assay; format: functional, cell-based
# NCI-H460 = experiment: Cytotoxicity against human NCI-H460 cells by MTT assay; format: functional, cell-based
# BGC-823 = experiment: Cytotoxicity against human BGC823 cells by MTT assay; format: functional, cell-based
# CCRF S-180 [1] = experiment: Anticancer activity against mouse S180 cells xenografted in ICR mouse assessed as tumor weight inhibition at 100 mg/kg, ip relative to control; settings: CCRF S-180, ip, read-out: INH
# CCRF S-180 [2] = experiment: Anticancer activity against mouse S180 cells xenografted in ICR mouse assessed as tumor weight inhibition at 50 mg/kg, ip relative to control; format: functional; settings: CCRF S-180, ip, route intraperitoneal
# CCRF S-180 [3] = experiment: Anticancer activity against mouse S180 cells xenografted in ICR mouse assessed as tumor weight inhibition at 25 mg/kg, ip relative to control; format: functional; settings: CCRF S-180, ip, route intraperitoneal
SMILES,IC50 (Bel-7402),IC50 (PC-3),IC50 (NCI-H460),IC50 (BGC-823),inhibition in vivo at 100 mg/kg (CCRF S-180 [1]),inhibition in vivo at 50 mg/kg (CCRF S-180 [2]),inhibition in vivo at 25 mg/kg (CCRF S-180 [3])
COc1cc(/C=C/C(=O)c2sc(Nc3ccc(Cl)cc3)nc2C)cc(OC)c1OC,> 25 µM,> 25 µM,22 µM,> 25 µM,,,
Cc1nc(Nc2cccc(Cl)c2)sc1C(=O)/C=C/c1ccc(Cl)cc1,> 25 µM,> 25 µM,> 25 µM,> 25 µM,,,
COc1cccc(/C=C/C(=O)c2sc(Nc3ccccc3C)nc2C)c1,> 25 µM,> 25 µM,> 25 µM,> 25 µM,,,
COc1cccc(/C=C/C(=O)c2sc(Nc3ccc(Cl)c(Cl)c3)nc2C)c1,> 25 µM,10.1 µM,20.1 µM,8.35 µM,,,
Cc1cccc(Nc2nc(C)c(C(=O)/C=C/c3ccc(Cl)cc3)s2)c1,> 25 µM,> 25 µM,> 25 µM,> 25 µM,,,
COc1cc(/C=C/C(=O)c2sc(Nc3ccc(C)cc3)nc2C)cc(OC)c1OC,> 25 µM,> 25 µM,> 25 µM,> 25 µM,,,
Cc1ccccc1Nc1nc(C)c(C(=O)/C=C/c2ccccc2)s1,> 25 µM,> 25 µM,> 25 µM,> 25 µM,,,
COc1cccc(/C=C/C(=O)c2sc(Nc3cccc(C)c3)nc2C)c1,> 25 µM,> 25 µM,> 25 µM,> 25 µM,,,
COc1cc(/C=C/C(=O)c2sc(Nc3cccc(Cl)c3)nc2C)cc(OC)c1OC,14 µM,> 25 µM,> 25 µM,11.6 µM,,,
COc1ccc(/C=C/C(=O)c2sc(Nc3ccc(Cl)c(Cl)c3)nc2C)cc1,> 25 µM,> 25 µM,> 25 µM,> 25 µM,,,
O=P1(N(CCCl)CCCl)NCCCO1 (centres undefined) [CYCLOPHOSPHAMIDE ANHYDROUS],,,,,91.7%,,
Cc1cccc(Nc2nc(C)c(C(=O)/C=C/c3ccccc3)s2)c1,> 25 µM,11.7 µM,21.8 µM,13.6 µM,,,
Cc1nc(Nc2cccc(Cl)c2)sc1C(=O)/C=C/c1ccccc1,> 25 µM,> 25 µM,> 25 µM,> 25 µM,,,
COc1cc(/C=C/C(=O)c2sc(Nc3ccccc3C)nc2C)cc(OC)c1OC,10.3 µM,> 25 µM,6.32 µM,5.4 µM,,,
Cc1cccc(Nc2nc(C)c(C(=O)/C=C/c3ccccc3Cl)s2)c1,> 25 µM,22.2 µM,> 25 µM,24.2 µM,,,
Cc1ccc(Nc2nc(C)c(C(=O)/C=C/c3ccc4c(c3)OCO4)s2)cc1,> 25 µM,> 25 µM,> 25 µM,> 25 µM,,,
Cc1nc(Nc2ccc(Cl)c(Cl)c2)sc1C(=O)/C=C/c1ccc2c(c1)OCO2,> 25 µM,> 25 µM,> 25 µM,> 25 µM,,,
COc1cc(/C=C/C(=O)c2sc(Nc3ccc(Cl)c(Cl)c3)nc2C)cc(OC)c1OC,> 25 µM,19.3 µM,> 25 µM,> 25 µM,,25.1%,
COc1cccc(/C=C/C(=O)c2sc(Nc3ccc(C)cc3)nc2C)c1,> 25 µM,> 25 µM,> 25 µM,> 25 µM,,,

SMILES,IC50 (Bel-7402),IC50 (PC-3),IC50 (NCI-H460),IC50 (BGC-823),inhibition in vivo at 100 mg/kg (CCRF S-180 [1]),inhibition in vivo at 50 mg/kg (CCRF S-180 [2]),inhibition in vivo at 25 mg/kg (CCRF S-180 [3])
Cc1nc(Nc2ccccc2)sc1C(=O)/C=C/c1ccccc1Cl,> 25 µM,> 25 µM,> 25 µM,22.8 µM,,,
Cc1nc(Nc2ccccc2)sc1C(=O)/C=C/c1ccc(Cl)cc1,> 25 µM,> 25 µM,> 25 µM,> 25 µM,,,
COc1cccc(/C=C/C(=O)c2sc(Nc3ccccc3)nc2C)c1,> 25 µM,> 25 µM,> 25 µM,14.3 µM,,,
Cc1nc(Nc2ccccc2)sc1C(=O)/C=C/c1ccccc1,> 25 µM,> 25 µM,> 25 µM,19.5 µM,,,
COc1cccc(/C=C/C(=O)c2sc(Nc3cccc(Cl)c3)nc2C)c1,> 25 µM,> 25 µM,> 25 µM,,,,
Cc1ccccc1Nc1nc(C)c(C(=O)/C=C/c2ccccc2Cl)s1,> 25 µM,> 25 µM,> 25 µM,> 25 µM,,,
Cc1nc(Nc2ccc(Cl)cc2)sc1C(=O)/C=C/c1ccccc1,> 25 µM,24.6 µM,> 25 µM,> 25 µM,,,
COc1cc(/C=C/C(=O)c2sc(Nc3ccccc3)nc2C)cc(OC)c1OC,> 25 µM,> 25 µM,> 25 µM,> 25 µM,,,
Cc1nc(Nc2ccc(Cl)c(Cl)c2)sc1C(=O)/C=C/c1ccccc1,21.5 µM,7.99 µM,22.7 µM,10.6 µM,,,
COc1ccc(/C=C/C(=O)c2sc(Nc3ccc(Cl)cc3)nc2C)cc1,> 25 µM,> 25 µM,> 25 µM,> 25 µM,,,
Cc1nc(Nc2ccc(Cl)cc2)sc1C(=O)/C=C/c1ccc(Cl)cc1,> 25 µM,> 25 µM,> 25 µM,> 25 µM,,,
COc1cc(/C=C/C(=O)c2sc(Nc3cccc(C)c3)nc2C)cc(OC)c1OC,> 25 µM,> 25 µM,19.8 µM,17.2 µM,,,
Cc1nc(Nc2ccc(Cl)c(Cl)c2)sc1C(=O)/C=C/c1ccc(Cl)cc1,> 25 µM,> 25 µM,> 25 µM,22.7 µM,,,
Cc1ccc(Nc2nc(C)c(C(=O)/C=C/c3ccccc3Cl)s2)cc1,> 25 µM,> 25 µM,> 25 µM,> 25 µM,,,
COc1cc(/C=C/C(=O)c2sc(Nc3ccc(F)c(Cl)c3)nc2C)cc(OC)c1OC,,,6.31 µM,9.7 µM,,22.6%,23%
Cc1ccc(Nc2nc(C)c(C(=O)/C=C/c3ccccc3)s2)cc1,> 25 µM,> 25 µM,> 25 µM,> 25 µM,,,
COc1cccc(/C=C/C(=O)c2sc(Nc3ccc(Cl)cc3)nc2C)c1,> 25 µM,> 25 µM,> 25 µM,> 25 µM,,,
Cc1ccccc1Nc1nc(C)c(C(=O)/C=C/c2ccc(Cl)cc2)s1,> 25 µM,> 25 µM,> 25 µM,> 25 µM,,,
Cc1ccc(Nc2nc(C)c(C(=O)/C=C/c3ccc(Cl)cc3)s2)cc1,> 25 µM,> 25 µM,> 25 µM,> 25 µM,,,

# Reference: ChEMBL document CHEMBL1268940, “Synthesis and anticancer evaluation of thiazolyl-chalcones” (Bioorg Med Chem Lett, 2010)
